Measurements as given in US20050245399A1, “Pyrazole derivatives as herbicidal compositions containing them” (ISHIHARA SANGYO KAISHA, LTD., priority 2004, published 2005).

Assays:
Format in all cases: in vivo
[1] = tested on: soybean (Glycine max Merr.): GLXMA; test: Test Example 1 pre-emergence herbicidal activity, GLXMA; details: Rate 63 g a.i./ha, visually observed 20th to 23rd day after application
Outline: (§1)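 Visual scoring 20–23 days after treatment gives percent growth control, where 0 equals untreated and 100 means complete kill. Treatment: pre-emergence spray of formulated compound in 500 L/ha water, one day after sowing in upland soil.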

[2] = tested on: redroot pigweed (Amaranthus retroflexus L.), AMARE; test: Test Example 2 post-emergence (foliage treatment) herbicidal activity, AMARE; details: 63 g a.i./ha
Outline: (§2)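 Foliar spray of formulated compound (500 L/ha dilution water, 0.1% v/v spreader) onto young potted plants at defined leaf stages. Scored 0-100% by visual inspection 20-23 d post-spray.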

[3] = tested on: barnyardgrass (Echinochloa crus-galli L.): ECHCG; test: Test Example 1 pre-emergence herbicidal activity, ECHCG; details: Rate 63 g a.i./ha, visually observed 20th to 23rd day after application
Outline: as §1

[4] = tested on: velvetleaf (Abutilon theophrasti): ABUTH; test: Test Example 1 pre-emergence herbicidal activity, ABUTH; details: Rate 63 g a.i./ha, visually observed 20th to 23rd day after application
Outline: as §1

[5] = tested on: crabgrass (Digitaria sanguinalis L.): DIGSA; test: Test Example 1 pre-emergence herbicidal activity, DIGSA; details: Rate 63 g a.i./ha, visually observed 20th to 23rd day after application
Outline: as §1

[6] = tested on: velvetleaf (Abutilon theophrasti), ABUTH; test: Test Example 2 post-emergence (foliage treatment) herbicidal activity, ABUTH; details: 63 g a.i./ha
Outline: as §2

[7] = tested on: soybean (Glycine max Merr.), GLXMA; test: Test Example 2 post-emergence (foliage treatment) herbicidal activity, GLXMA; details: 63 g a.i./ha
Outline: as §2

[8] = tested on: barnyardgrass (Echinochloa crus-galli L.), ECHCG; test: Test Example 2 post-emergence (foliage treatment) herbicidal activity, ECHCG; details: 63 g a.i./ha
Outline: as §2

[9] = tested on: prickly sida (Sida spinosa L.): SEDSP; test: Test Example 1 pre-emergence herbicidal activity, SIDSP; details: Rate 63 g a.i./ha, visually observed 20th to 23rd day after application
Outline: as §1

[10] = tested on: wheat (Triticum aestivum L.): TRZAX; test: Test Example 1 pre-emergence herbicidal activity, TRZAX; details: Rate 63 g a.i./ha, visually observed 20th to 23rd day after application
Outline: as §1

[11] = tested on: corn (Zea mays L.): ZEAMX; test: Test Example 1 pre-emergence herbicidal activity, ZEAMX; details: Rate 63 g a.i./ha, visually observed 20th to 23rd day after application
Outline: as §1

[12] = tested on: green foxtail (Setaria viridis L.): SETVI; test: Test Example 1 pre-emergence herbicidal activity, SETVI; details: Rate 63 g a.i./ha, visually observed 20th to 23rd day after application
Outline: as §1

[13] = tested on: rice (Oryza sativa L.): ORYSA; test: Test Example 1 pre-emergence herbicidal activity, ORYSA; details: Rate 63 g a.i./ha, visually observed 20th to 23rd day after application
Outline: as §1

[14] = tested on: rice (Oryza sativa L.), ORYSA; test: Test Example 2 post-emergence (foliage treatment) herbicidal activity, ORYSA; details: 63 g a.i./ha
Outline: as §2

[15] = tested on: prickly sida (Sida spinosa L.), SIDSP; test: Test Example 2 post-emergence (foliage treatment) herbicidal activity, SIDSP; details: 63 g a.i./ha
Outline: as §2

[16] = tested on: crabgrass (Digitaria sanguinalis L.), DIGSA; test: Test Example 2 post-emergence (foliage treatment) herbicidal activity, DIGSA; details: 63 g a.i./ha
Outline: as §2

[17] = tested on: corn (Zea mays L.), ZEAMX; test: Test Example 2 post-emergence (foliage treatment) herbicidal activity, ZEAMX; details: 63 g a.i./ha
Outline: as §2

[18] = tested on: redroot pigweed (Amaranthus retroflexus L.): AMARE; test: Test Example 1 pre-emergence herbicidal activity, AMARE; details: Rate 63 g a.i./ha, visually observed 20th to 23rd day after application
Outline: as §1

[19] = tested on: green foxtail (Setaria viridis L.), SETVI; test: Test Example 2 post-emergence (foliage treatment) herbicidal activity, SETVI; details: 63 g a.i./ha
Outline: as §2

[20] = tested on: wheat (Triticum aestivum L.), TRZAX; test: Test Example 2 post-emergence (foliage treatment) herbicidal activity, TRZAX; details: 63 g a.i./ha
Outline: as §2

## COc1c(Cl)cc(F)c(-c2nn(C)c(OC(F)F)c2Cl)c1NC(=O)C(C)=Cc1ccccc1 [Compound 1-251]
[1]
  Pre-emergence Herbicidal Activity GLXMA (growth controlling degree): 0%
[2]
  growth controlling degree, AMARE: 100%
[3]
  Pre-emergence Herbicidal Activity ECHCG (growth controlling degree): 0%
[4]
  Pre-emergence Herbicidal Activity ABUTH (growth controlling degree): 30%
[5]
  Pre-emergence Herbicidal Activity DIGSP (growth controlling degree): 20%
[6]
  growth controlling degree, ABUTH: 95%
[7]
  growth controlling degree, GLXMA: 40%
[8]
  growth controlling degree, ECHCO: 60%
[9]
  Pre-emergence Herbicidal Activity SIDSP (growth controlling degree): 20%
[10]
  Pre-emergence Herbicidal Activity TRZAX (growth controlling degree): 0%
[11]
  Pre-emergence Herbicidal Activity ZEAMX (growth controlling degree): 0%
[12]
  Pre-emergence Herbicidal Activity SETVI (growth controlling degree): 20%
[13]
  Pre-emergence Herbicidal Activity ORYSA (growth controlling degree): 10%
[14]
  growth controlling degree, ORYSA: 10%
[15]
  growth controlling degree, SIDSP: 95%
[16]
  growth controlling degree, DIGSP: 70%
[17]
  growth controlling degree, ZEAMX: 10%
[18]
  Pre-emergence Herbicidal Activity AMARE (growth controlling degree): 100%
[19]
  growth controlling degree, SETVI: 60%
[20]
  growth controlling degree, TRZAX: 20%

## COc1c(Cl)cc(F)c(-c2nn(C)c(OC(F)F)c2Cl)c1NC(=O)C=Cc1ccccc1C [Compound 1-253]
[1]
  Pre-emergence Herbicidal Activity GLXMA (growth controlling degree): 0%
[2]
  growth controlling degree, AMARE: 100%
[3]
  Pre-emergence Herbicidal Activity ECHCG (growth controlling degree): 20%
[4]
  Pre-emergence Herbicidal Activity ABUTH (growth controlling degree): 40%
[5]
  Pre-emergence Herbicidal Activity DIGSP (growth controlling degree): 70%
[6]
  growth controlling degree, ABUTH: 100%
[7]
  growth controlling degree, GLXMA: 80%
[8]
  growth controlling degree, ECHCO: 80%
[9]
  Pre-emergence Herbicidal Activity SIDSP (growth controlling degree): 30%
[10]
  Pre-emergence Herbicidal Activity TRZAX (growth controlling degree): 0%
[11]
  Pre-emergence Herbicidal Activity ZEAMX (growth controlling degree): 0%
[12]
  Pre-emergence Herbicidal Activity SETVI (growth controlling degree): 50%
[13]
  Pre-emergence Herbicidal Activity ORYSA (growth controlling degree): 10%
[14]
  growth controlling degree, ORYSA: 70%
[15]
  growth controlling degree, SIDSP: 100%
[16]
  growth controlling degree, DIGSP: 30%
[17]
  growth controlling degree, ZEAMX: 40%
[18]
  Pre-emergence Herbicidal Activity AMARE (growth controlling degree): 100%
[19]
  growth controlling degree, SETVI: 100%
[20]
  growth controlling degree, TRZAX: 50%

## COc1c(Cl)cc(F)c(-c2nn(C)c(OC(F)F)c2Cl)c1NC(=O)C=Cc1ccc(C)cc1 [Compound 1-255]
[1]
  Pre-emergence Herbicidal Activity GLXMA (growth controlling degree): 0%
[2]
  growth controlling degree, AMARE: 100%
[3]
  Pre-emergence Herbicidal Activity ECHCG (growth controlling degree): 0%
[4]
  Pre-emergence Herbicidal Activity ABUTH (growth controlling degree): 0%
[5]
  Pre-emergence Herbicidal Activity DIGSP (growth controlling degree): 10%
[6]
  growth controlling degree, ABUTH: 100%
[7]
  growth controlling degree, GLXMA: 50%
[8]
  growth controlling degree, ECHCO: 50%
[9]
  Pre-emergence Herbicidal Activity SIDSP (growth controlling degree): 0%
[10]
  Pre-emergence Herbicidal Activity TRZAX (growth controlling degree): 0%
[11]
  Pre-emergence Herbicidal Activity ZEAMX (growth controlling degree): 0%
[12]
  Pre-emergence Herbicidal Activity SETVI (growth controlling degree): 10%
[13]
  Pre-emergence Herbicidal Activity ORYSA (growth controlling degree): 0%
[14]
  growth controlling degree, ORYSA: 40%
[15]
  growth controlling degree, SIDSP: 100%
[16]
  growth controlling degree, DIGSP: 30%
[17]
  growth controlling degree, ZEAMX: 20%
[18]
  Pre-emergence Herbicidal Activity AMARE (growth controlling degree): 70%
[19]
  growth controlling degree, SETVI: 50%
[20]
  growth controlling degree, TRZAX: 10%

## C#CCOC(=O)Nc1c(OC)c(Cl)cc(F)c1-c1nn(C)c(OC(F)F)c1Cl [Compound 1-74]
[1]
  Pre-emergence Herbicidal Activity GLXMA (growth controlling degree): 0%
[2]
  growth controlling degree, AMARE: 100%
[3]
  Pre-emergence Herbicidal Activity ECHCG (growth controlling degree): 90%
[4]
  Pre-emergence Herbicidal Activity ABUTH (growth controlling degree): 100%
[5]
  Pre-emergence Herbicidal Activity DIGSP (growth controlling degree): 100%
[6]
  growth controlling degree, ABUTH: 100%
[7]
  growth controlling degree, GLXMA: 60%
[8]
  growth controlling degree, ECHCO: 98%
[9]
  Pre-emergence Herbicidal Activity SIDSP (growth controlling degree): 100%
[10]
  Pre-emergence Herbicidal Activity TRZAX (growth controlling degree): 30%
[11]
  Pre-emergence Herbicidal Activity ZEAMX (growth controlling degree): 10%
[12]
  Pre-emergence Herbicidal Activity SETVI (growth controlling degree): 100%
[13]
  Pre-emergence Herbicidal Activity ORYSA (growth controlling degree): 50%
[14]
  growth controlling degree, ORYSA: 95%
[15]
  growth controlling degree, SIDSP: 100%
[16]
  growth controlling degree, DIGSP: 70%
[17]
  growth controlling degree, ZEAMX: 30%
[18]
  Pre-emergence Herbicidal Activity AMARE (growth controlling degree): 100%
[19]
  growth controlling degree, SETVI: 100%
[20]
  growth controlling degree, TRZAX: 50%

## COc1c(Cl)cc(F)c(-c2nn(C)c(OC(F)F)c2Cl)c1NC(=O)C(C)(C)Oc1ccccc1 [Compound 1-38]
[1]
  Pre-emergence Herbicidal Activity GLXMA (growth controlling degree): 0%
[2]
  growth controlling degree, AMARE: 100%
[3]
  Pre-emergence Herbicidal Activity ECHCG (growth controlling degree): 0%
[4]
  Pre-emergence Herbicidal Activity ABUTH (growth controlling degree): 0%
[5]
  Pre-emergence Herbicidal Activity DIGSP (growth controlling degree): 10%
[6]
  growth controlling degree, ABUTH: 100%
[7]
  growth controlling degree, GLXMA: 30%
[8]
  growth controlling degree, ECHCO: 50%
[9]
  Pre-emergence Herbicidal Activity SIDSP (growth controlling degree): 0%
[10]
  Pre-emergence Herbicidal Activity TRZAX (growth controlling degree): 0%
[11]
  Pre-emergence Herbicidal Activity ZEAMX (growth controlling degree): 0%
[12]
  Pre-emergence Herbicidal Activity SETVI (growth controlling degree): 20%
[13]
  Pre-emergence Herbicidal Activity ORYSA (growth controlling degree): 0%
[14]
  growth controlling degree, ORYSA: 40%
[15]
  growth controlling degree, SIDSP: 100%
[16]
  growth controlling degree, DIGSP: 20%
[17]
  growth controlling degree, ZEAMX: 10%
[18]
  Pre-emergence Herbicidal Activity AMARE (growth controlling degree): 20%
[19]
  growth controlling degree, SETVI: 50%
[20]
  growth controlling degree, TRZAX: 10%
